From US10947215B2, “Heteroaryl compounds and their use as therapeutic drugs” (Dong-A Socio Holdings Co., Ltd., priority 2015, dated 2021)
pIC50: −log10 of the molar value.

Legend:
[1] = test system: Ba/F3-CDM cells (Ba/F3 transfected with CD8-MerTK); assay: In cell MER kinase assay, Ba/F3-CDM cell proliferation without IL-3 (Celltiter-Glo, GI50); format: cell-based, murine; details: 48 hours, read-out: Cell growth inhibition (GI50)
Outline: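 Ba/F3 cells expressing CD8-MerTK were grown without IL-3, so that proliferation depends on MerTK. Cells were pre-incubated 24 h, then exposed to compound for 48 h. Viability was read by CellTiter-Glo, with IL-3-supplemented Ba/F3 run in parallel as a nonspecific cytotoxicity control, and GI50 was derived.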

[2] = molecular target: human c-MER catalytic domain (Homo sapiens (Human), UniProt Q12866); assay: LanthaScreen TR-FRET biochemical kinase assay (c-MER); details: read-out: Mer TK inhibition (IC50), 10 uM ATP
Sequence of human c-MER catalytic domain (Q12866 587-858): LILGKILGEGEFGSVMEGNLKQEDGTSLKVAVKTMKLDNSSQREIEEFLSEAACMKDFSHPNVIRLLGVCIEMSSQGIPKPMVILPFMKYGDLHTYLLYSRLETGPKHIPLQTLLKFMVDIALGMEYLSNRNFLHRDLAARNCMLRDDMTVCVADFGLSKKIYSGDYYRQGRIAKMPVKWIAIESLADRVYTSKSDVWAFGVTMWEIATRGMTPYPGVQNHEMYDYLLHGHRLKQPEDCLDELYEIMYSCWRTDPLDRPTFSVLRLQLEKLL

| SMILES | GI50 [1] | pIC50 [2] |
| --- | --- | --- |
| C[C@@H]1CN(Cc2ccc(-c3ccc(CO[C@H]4CCC[C@@H]4NC(=O)c4cc(-c5cnn(C)c5)cnc4N)cc3)cc2)C[C@H](C)N1C [Example 190, 2-amino-5-(1-methyl-1H-pyrazol-4-yl)-N-((1S,2S)-2-((4′-((cis-3,4,5-trimethylpiperazin-1-yl)methyl)-[1,1′-biphenyl]-4-yl)methoxy)cyclopentyl)-nicotinamide] | < 100 nM | > 8.00 |
| C[C@@H]1CN(C)[C@@H](C)CN1Cc1ccc(-c2ccc(CO[C@H]3CCC[C@@H]3NC(=O)c3cc(-c4cnn(C)c4)cnc3N)cc2)cc1 [Example 192, 2-amino-5-(1-methyl-1H-pyrazol-4-yl)-N-((1S,2S)-2-((4′-(((2R,5S)-2,4,5-trimethylpiperazin-1-yl)methyl)-[1,1′-biphenyl]-4-yl)methoxy)cyclopentyl)nicotinamide] | < 100 nM | > 8.00 |
| CCc1cc(CO[C@H]2CNC[C@@H]2NC(=O)c2cc(-c3ccc(CO)cc3)cnc2N)ccc1C [Example 389, 2-amino-N-((3S,4S)-4-((3-ethyl-4-methylbenzyl)oxy)pyrrolidin-3-yl)-5-(4-(hydroxymethyl)phenyl)nicotinamide] | 100 to 500 nM | > 8.00 |
| Cn1cc(-c2cnc(N)c(C(=O)N[C@H]3CNC[C@@H]3OCc3ccc(-c4ccc(CN5CCN(CCO)CC5)c(C(F)(F)F)c4)cc3)c2)cn1 [Example 444, 2-amino-N-((3S,4S)-4-((4′-((4-(2-hydroxyethyl)piperazin-1-vi)-methyl)-3′-(trifluoromethyl)-[1,1′-biphenyl]-4-yl)methoxy)pyrrolidin-3-yl)-5-(1-methyl-1H-pyrazol-4-yl)nicotinamide] | > 1000 nM | – |
| Cn1cc(-c2cnc(N)c(C(=O)N[C@H]3CNC[C@@H]3OCc3ccc(-c4ccc(CN5CCN(CCO)CC5)cc4)cc3)c2)cn1 [Example 446, 2-amino-N-((3S,4S)-4-((4′-((4-(2-hydroxyethyl)piperazin-1-yl)-methyl)-[1,1′-biphenyl]-4-yl)methoxy)pyrrolidin-3-yl)-5-(1-methyl-1H-pyrazol-4-yl)-nicotinamide] | > 1000 nM | – |
| Cn1cc(-c2cnc(N)c(C(=O)N[C@H]3COC[C@@H]3OCc3ccc(-c4ccc(CN5CCN(CCO)CC5)c(C(F)(F)F)c4)cc3)c2)cn1 [Example 452] | < 100 nM | – |

Now from value to compound, other results behind:

| GI50 [1] | SMILES | pIC50 [2] |
| --- | --- | --- |
| < 100 nM | CN1C[C@H](NC(=O)c2cc(-c3cnn(C)c3)cnc2N)[C@@H](OCc2ccc(-c3ccc(CN4CCN(CCO)CC4)c(C(F)(F)F)c3)cc2)C1 [Example 445, 2-amino-N-((3S,4S)-4-((4′-((4-(2-hydroxyethyl)piperazin-1-vi)-methyl)-3′-(trifluoromethyl)-[1,1′-biphenyl]-4-yl)methoxy)-1-methylpyrrolidin-3-yl)-5-(1-methyl-1H-pyrazol-4-yl)nicotinamide] | – |
| < 100 nM | CN1C[C@H](NC(=O)c2cc(-c3cnn(C)c3)cnc2N)[C@@H](OCc2ccc(-c3ccc(CN4CCN(CCO)CC4)cc3)cc2)C1 [Example 447, 2-amino-N-((3S,4S)-4-((4′-((4-(2-hydroxyethyl)piperazin-1-yl)-methyl)-[1,1′-biphenyl]-4-yl)methoxy)-1-methylpyrrolidin-3-yl)-5-(1-methyl-1H-pyrazol-4-yl)nicotinamide] | – |
| < 100 nM | CN1CCN(Cc2ccc(-c3ccc(CO[C@H]4COC[C@@H]4NC(=O)c4cc(-c5cnn(C)c5)cnc4N)cc3)cc2)CC1 [Example 448, 2-amino-5-(1-methyl-1H-pyrazol-4-yl)-N-((3S,4R)-4-((4′-((4-methylpiperazin-1-yl)methyl)-[1,1′-biphenyl]-4-yl)methoxy)tetrahydrofuran-3-yl)-nicotinamide] | – |
| < 100 nM | CN1CCN(Cc2ccc(-c3ccc(CO[C@H]4COC[C@@H]4NC(=O)c4cc(-c5cnn(C)c5)cnc4N)cc3)cc2C(F)(F)F)CC1 [Example 449, 2-amino-5-(1-methyl-1H-pyrazol-4-yl)-N-((3S,4R)-4-((4′-((4-methylpiperazin-1-yl)methyl)-3′-(trifluoromethyl)-[1,1′-biphenyl]-4-yl)methoxy)-tetrahydrofuran-3-yl)nicotinamide] | – |
| < 100 nM | CN1CCN(C(C)(C)c2ccc(-c3ccc(CO[C@H]4COC[C@@H]4NC(=O)c4cc(-c5cnn(C)c5)cnc4N)cc3)cc2)CC1 [Example 450, 2-amino-5-(1-methyl-1H-pyrazol-4-yl)-N-((3S,4R)-4-((4′-(2-(4-methylpiperazin-1-yl)propan-2-yl)-[1,1′-biphenyl]-4-yl)methoxy)tetrahydrofuran-3-yl)nicotinamide] | – |
| < 100 nM | Cn1cc(-c2cnc(N)c(C(=O)N[C@H]3COC[C@@H]3OCc3ccc(-c4ccc(CN5CCN(CCO)CC5)cc4)cc3)c2)cn1 [Example 451, 2-amino-N-((3S,4R)-4-((4′-((4-(2-hydroxyethyl)piperazin-1-yl)methyl)-[1,1′-biphenyl]-4-yl)methoxy)tetrahydrofuran-3-yl)-5-(1-methyl-1H-pyrazol-4-yl)nicotinamide] | – |
